Test results published in paper PMC9828300 (2022).

Experiments:
[1] = test system: Olig (oligonucleotide fragment of the UCP1 gene promoter; Oligo) (DNA, G4) CGAGGGTGGGTAGGAGGGGACGCGGGGACT; test: UV-vis absorption; settings: 100 mM KCl; 10 mM Tris-HCl pH 7.4, 25°C; 6 μM DNA, 24 μM berberine; ~45% hypochromicity, 340 to 348 nm
[2] = test system: Olig (oligonucleotide fragment of the UCP1 gene promoter; Oligo) (DNA, G4) CGAGGGTGGGTAGGAGGGGACGCGGGGACT; test: fluorescence enhancement; settings: 100 mM KCl; 10 mM Tris-HCl pH 7.4, 25°C; 6 μM DNA, 24 μM berberine; excitation 280 nm
[3] = test system: Olig (oligonucleotide fragment of the UCP1 gene promoter; Oligo) (DNA, G4) CGAGGGTGGGTAGGAGGGGACGCGGGGACT; test: native gel electrophoresis; settings: 100 mM KCl; 10 mM Tris-HCl pH 7.4, 4°C overnight; 6 μM DNA, 24 μM berberine; Uni-G4 to Tetra-G4

Measured: binding

COc1ccc2cc3[n+](cc2c1OC)CCc1cc2c(cc1-3)OCO2
yes: all assays above
